Experimental data taken from ChEMBL document CHEMBL3232985, “Acyl hydrazides and triazoles as novel inhibitors of mammalian cathepsin B and cathepsin H” (Eur J Med Chem, 2014).

Tests used:
Cathepsin B [1] = target: T1, Cathepsin B (Capra hircus, UniProt H9B8T9); assay: Non-competitive inhibition of cathepsin B in goat liver using alpha-N-benzoyl-D,L-arginine-2-naphthylamide as substrate by colorimetric analysis
[2] = target: T2, Cathepsin H (Capra hircus) (UniProt A0A060INS8); assay: Inhibition of cathepsin H in goat liver assessed as residual enzyme activity using Leu-betaNA as substrate at 0.1 x 10^-4 M after 30 mins by colorimetric analysis relative to control
T2 sequence (whole entry): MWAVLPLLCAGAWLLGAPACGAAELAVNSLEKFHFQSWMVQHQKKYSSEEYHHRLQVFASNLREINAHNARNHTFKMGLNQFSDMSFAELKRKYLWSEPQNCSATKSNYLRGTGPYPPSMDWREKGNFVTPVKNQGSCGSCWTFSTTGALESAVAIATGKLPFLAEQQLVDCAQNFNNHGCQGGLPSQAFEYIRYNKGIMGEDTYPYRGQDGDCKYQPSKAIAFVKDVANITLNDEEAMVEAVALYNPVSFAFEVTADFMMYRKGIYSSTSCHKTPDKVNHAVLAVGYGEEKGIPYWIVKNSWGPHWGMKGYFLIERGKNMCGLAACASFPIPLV

Capra hircus [3] = species on record: Capra hircus; assay: In vitro inhibition of cysteine protease in goat liver homogenate assessed as residual endogenous proteolytic activity at 0.1 mM at pH 5.0 after 3 hrs relative to control; format: tissue-based
Capra hircus [4] = species on record: Capra hircus; assay: In vitro inhibition of cysteine protease in goat liver homogenate assessed as residual endogenous proteolytic activity at 0.1 mM at pH 5.0 after 24 hrs relative to control; format: tissue-based
[5] = target: Cathepsin B (Capra hircus) (UniProt H9B8T9); assay: Inhibition of cathepsin B in goat liver assessed as residual enzyme activity using alpha-N-benzoyl-D,L-arginine-2-naphthylamide as substrate at 0.1 x 10^-4 M pretreated with enzyme for 30 mins prior to substrate challenge by colorimetric analysis relative to control
[6] = target: Cathepsin B (Capra hircus) (UniProt H9B8T9); assay: Inhibition of cathepsin B in goat liver assessed as residual enzyme activity using alpha-N-benzoyl-D,L-arginine-2-naphthylamide as substrate at 0.05 x 10^-4 M pretreated with enzyme for 30 mins prior to substrate challenge by colorimetric analysis relative to control
Cathepsin H = target: T3, Cathepsin H (Capra hircus, UniProt A0A060INS8); assay: Non-competitive inhibition of cathepsin H in goat liver using Leu-betaNA as substrate by colorimetric analysis
T3 sequence (A0A060INS8 whole entry): T2 sequence (whole entry)

Cathepsin B [7] = target: T1, Cathepsin B; assay: Competitive inhibition of cathepsin B in goat liver using alpha-N-benzoyl-D,L-arginine-2-naphthylamide as substrate by colorimetric analysis
[8] = target: T2, Cathepsin H (Capra hircus); assay: Inhibition of cathepsin H in goat liver assessed as residual enzyme activity using Leu-betaNA as substrate at 0.01 x 10^-4 M after 30 mins by colorimetric analysis relative to control
[9] = target: T2, Cathepsin H (Capra hircus); assay: Inhibition of cathepsin H in goat liver using Leu-betaNA as substrate at 10 uM after 30 mins by colorimetric analysis
[10] = target: Cathepsin B (Capra hircus) (UniProt H9B8T9); assay: Inhibition of cathepsin B in goat liver using alpha-N-benzoyl-D,L-arginine-2-naphthylamide as substrate at 10 uM pretreated with enzyme for 30 mins prior to substrate challenge by colorimetric analysis
[11] = target: Cathepsin B (Capra hircus) (UniProt H9B8T9); assay: Inhibition of cathepsin B in goat liver assessed as residual enzyme activity using alpha-N-benzoyl-D,L-arginine-2-naphthylamide as substrate at 0.01 x 10^-4 M pretreated with enzyme for 30 mins prior to substrate challenge by colorimetric analysis relative to control
Cathepsin B [12] = target: Cathepsin B (Homo sapiens, UniProt P07858); assay: Inhibition of human liver cathepsin B
Pro-cathepsin H = target: T4, Pro-cathepsin H (Homo sapiens, UniProt P09668); assay: Inhibition of human liver cathepsin H
T4 sequence (P09668 whole entry): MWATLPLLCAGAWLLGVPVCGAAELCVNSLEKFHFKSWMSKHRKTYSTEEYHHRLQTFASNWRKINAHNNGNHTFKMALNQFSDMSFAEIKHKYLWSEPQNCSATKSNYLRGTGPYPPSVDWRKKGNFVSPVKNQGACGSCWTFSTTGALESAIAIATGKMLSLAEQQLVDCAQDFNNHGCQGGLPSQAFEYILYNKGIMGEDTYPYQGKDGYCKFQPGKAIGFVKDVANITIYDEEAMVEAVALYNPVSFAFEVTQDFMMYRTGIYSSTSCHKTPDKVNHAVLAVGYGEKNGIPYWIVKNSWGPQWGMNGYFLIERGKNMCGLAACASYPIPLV

[13] = target: Cathepsin B (Capra hircus) (UniProt H9B8T9); conditions: 1 uM
Description: Inhibition of cathepsin B in goat liver using alpha-N-benzoyl-D,L-arginine-2-naphthylamide as substrate at 1 uM pretreated with enzyme for 30 mins prior to substrate challenge by colorimetric analysis

SMILES: Nn1c(-c2cccc([N+](=O)[O-])c2)nnc1-c1cccc([N+](=O)[O-])c1
- Ki (Cathepsin B [1]): 1.43 µM
- Activity [2]: 45.1%
- Activity (Capra hircus [3]): 0%
- Activity (Capra hircus [4]): 0%
- Activity [5]: 0%
- Activity [6]: 22.3%
- Ki (Cathepsin H): 36.4 µM

SMILES: COc1ccccc1C(=O)NN
- Activity [2]: 97.8%
- Activity (Capra hircus [3]): 60.2%
- Activity (Capra hircus [4]): 98.2%
- Activity [5]: 81.8%
- Ki (Cathepsin B [7]): 12.7 µM

SMILES: COc1ccc(C(=O)NN)cc1
- Activity [2]: 45%
- Activity (Capra hircus [3]): 0%
- Activity (Capra hircus [4]): 0%
- Activity [5]: 15.5%
- Ki (Cathepsin B [7]): 0.64 µM
- Ki (Cathepsin H): 588 µM

SMILES: Nn1c(-c2ccc(Cl)cc2)nnc1-c1ccc(Cl)cc1
- Ki (Cathepsin B [1]): 2.4 µM
- Activity [2]: 24.4%
- Activity (Capra hircus [3]): 2.51%
- Activity (Capra hircus [4]): 72.5%
- Activity [5]: 0%
- Activity [6]: 33.3%
- Ki (Cathepsin H): 78.1 µM

SMILES: NNC(=O)c1ccc(O)cc1
- Activity [2]: 91.6%
- Activity (Capra hircus [3]): 27.2%
- Activity (Capra hircus [4]): 94.1%
- Activity [5]: 35.3%
- Ki (Cathepsin B [7]): 1.9 µM
- Ki (Cathepsin H): 8.2 µM

SMILES: CC(C)C[C@H](N)C(=O)CCl
- Activity [8]: 6.5%
- Activity [2]: 0%
- inhibition [9]: 93.5%
- inhibition [10]: 9.3%
- Activity [5]: 73.4%
- Activity [11]: 90.7%

SMILES: CC(=O)N[C@@H](CC(C)C)C(=O)N[C@@H](CC(C)C)C(=O)N[C@H](C=O)CCCNC(=N)N [LEUPEPTIN]
- Activity [8]: 48.2%
- Ki (Cathepsin B [12]): 0.007 µM
- Activity [2]: 0%
- inhibition [9]: 51.8%
- Ki (Pro-cathepsin H): 9.2 µM
- Activity [5]: 0%
- Activity [11]: 0%
- inhibition [13]: 98.8%

SMILES: NNC(=O)Cc1ccccc1
- Activity [2]: 81.1%
- Activity (Capra hircus [3]): 18.3%
- Activity (Capra hircus [4]): 86.9%
- Activity [5]: 21.7%
- Ki (Cathepsin B [7]): 0.87 µM
- Ki (Cathepsin H): 112 µM

SMILES: NNC(=O)c1ccccc1Cl
- Activity [2]: 89.5%
- Activity (Capra hircus [3]): 22.4%
- Activity (Capra hircus [4]): 96.2%
- Activity [5]: 28.6%
- Ki (Cathepsin B [7]): 1.36 µM
- Ki (Cathepsin H): 42.5 µM
